How the values were obtained:
[1] = target: K56 receptor (mouse delta opioid receptor) (Mus musculus, UniProt P32300); assay: biochemical
[2] = target: T1, delta opioid receptor of NG 108-15 cells (Mus musculus, UniProt P32300); assay: biochemical; format: binding
T1 construct: NG 108-15 cells, which express the delta opioid receptor naturally; endogenous in cells; host or cells: NG 108-15 cells (membranes)
T1 sequence (P32300 whole entry): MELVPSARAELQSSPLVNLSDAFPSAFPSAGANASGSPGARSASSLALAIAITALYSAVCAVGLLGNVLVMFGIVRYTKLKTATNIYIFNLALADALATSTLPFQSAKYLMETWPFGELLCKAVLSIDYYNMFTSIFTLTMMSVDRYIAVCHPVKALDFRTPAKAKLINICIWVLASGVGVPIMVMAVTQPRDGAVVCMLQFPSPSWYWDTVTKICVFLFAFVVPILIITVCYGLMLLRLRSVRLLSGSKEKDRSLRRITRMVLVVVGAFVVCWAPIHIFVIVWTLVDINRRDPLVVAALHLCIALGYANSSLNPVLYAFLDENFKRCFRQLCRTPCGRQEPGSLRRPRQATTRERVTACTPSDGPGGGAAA

Chain of K56 receptor (mouse delta opioid receptor) (P32300 whole entry): as above

| SMILES | Ki ([1]; PKi Cos K56) | Ki ([1]; inhibition constant Ki) | Ki [2] |
| --- | --- | --- | --- |
| CCC12CCN(CC3(O)CC3)C(Cc3ccc(O)cc31)C2(C)C (stereo not shown) [Bremazocine, bremazocine] | 5.62 nM | 5.7 nM | 1.78 nM |
| CN1CC[C@]23CCCC[C@H]2[C@H]1Cc1ccc(O)cc13 [Levorphanol, levorphanol] | – | 20.9 nM | – |
